Data taken from publication PMC10609273, “Radiosynthesis and Early Evaluation of a Positron Emission Tomography Imaging Probe [^18F]AGAL Targeting Alpha-Galactosidase A Enzyme for Fabry Disease” (Molecules, 2023).

Experiments:
[1] = tested on: wild type mice; assay: Dynamic in vivo PET/CT imaging after intravenous injection; parameters: species or system mouse; conditions: i.v.
Method: After intravenous injection of [^18F]AGAL in wild type mice, the radioactivity rapidly accumulated in key organs such as the kidneys, liver, and heart, with the kidneys having the highest peak standardized uptake value (SUV ~18) at 3 min followed by rapid washout from all organs to lower than 1 SUV by 30 min and remaining low until the end of the 90 min scan (Figure 6A,B).
Figure 6 Dynamic in vivo PET/CT imaging in wild type mice after [^18F]AGAL intravenous injection. Time course of average radioactivity concentrations (n = 4, Mean ± SD) from various organs shown for full 90 min (A) and first 10 min (B) after tracer injection. (C) Representative coronal sections of PET/CT scan images from a wild type mouse with frames averaged between 0–2 min, 2–10 min, 10–30 min, 30–60 min, and 60–90 min are shown. SUV: Standardized uptake value.
[^18F]AGAL PET imaging was performed on a dedicated small animal PET/CT scanner (Siemens Multimodality Inveon, Siemens Medical Solutions USA Inc., Knoxville, TN, USA). The wild-type mice (n = 3, male 129S6) were anesthetized with 3% isoflurane/medical air inhalation prior to the radiotracer injection and throughout the scan duration. A bolus intravenous injection (via the lateral tail vein) of [^18F]AGAL (~7.4 MBq) was administered followed by dynamic PET scans in list mode for 90 min. After the PET acquisition, a low-dose CT scan was acquired (80 kVp, 0.5 mA) for anatomical reference and to provide guidance for the delineation of selected tissues volume of interest (VOI). The acquired PET data were sorted into 0.5 mm sinogram bins and 25 time frames (4 × 15 s, 4 × 60 s, and 17 × 300 s) for image reconstruction using FORE/3D-OSEM-MAP. The reconstructed PET/CT images were analyzed with the Siemens Inveon Research Workplace software v4.0 or other appropriate software. The radioactivity retention within the selected tissue was obtained from mean voxel intensity values within the VOI and then converted to megabecquerels per milliliter using the calibration factor determined for the Inveon PET System. […]

[2] = Stability of the formulated product by analytical HPLC; format: physicochemical
Method: Stability of the product was monitored via analytical HPLC over time.
Approximately 2000 mCi of [^18F]fluoride was produced on a GE PETtrace 800 cyclotron and delivered to the ^18F target delivery vial of a GE FX2 N radiosynthesis module (Figure 4). The irradiated target water was passed through a pre-conditioned Sep-PAK Light QMA Cartridge to trap [^18F]fluoride, followed by elution from the cartridge into reactor 1 using 3 mg […] and 13 mg Cryptand 222 in 0.6 mL of 50% acetonitrile in water. The contents of reactor 1 were dried via azeotropic distillation using a combination of heating, helium flow, and vacuum. An additional 1 mL of acetonitrile was introduced to reactor 1 and the azeotropic drying process was repeated. The reactor temperature was then reduced to 30 °C, followed by introduction of 4-pentynyl p-tosylate (10 mg, ABX GmbH, Radeberg, Germany) in 1.0 mL acetonitrile (anhydrous). The reactor was then sealed and heated to 110 °C and allowed to react with stirring for 3 min. Reactor 1 was then opened to reactor 2, with the reactor 1 needle in the “up” position. […]

O=C(CCCCCCCn1cc(CCC[18F])nn1)N1C2C(O)C(O)C(O)C(CO)C21 (centres unmarked) [[^18F]AGAL]
bone uptake (tracer defluorination) ([1]; PET images): No bone uptake | peak standardized uptake value (SUV), kidneys ([1]; at 3 min): ~ 18 SUV | standardized uptake value after washout, all organs ([1]; by 30 min until end of 90 min scan): lower than 1 SUV | decrease in RCP ([2]; after 6 h, with sodium ascorbate in the formulation (5 mg/mL)): less than 3% | decrease in RCP ([2]; after 6 h at room temperature, 10% EtOH in saline): 5–8%
